system: renal tubules; test: not given; conditions: rats, daily dose, route and vehicle of Table 2, day 5/7; absence of nephrotoxicity asserted from PDR and published literature; no histological injury on day 5/7; cited from earlier work

Molecule | Class (nephrotoxic / non-nephrotoxic training label)
CNCCc1ccccn1 [BETAHISTINE] | Non-nephrotoxic
CC(c1cc2ccccc2s1)N(O)C(N)=O (centres unmarked) [ZILEUTON] | Non-nephrotoxic
N.N.[Cl][Pt+2][Cl] [TRANSPLATIN] | Non-nephrotoxic
COc1ccc2cc(CC(=O)O)ccc2c1 | Non-nephrotoxic
CO[C@H]1C[C@@H]2CC[C@@H](C)[C@@](O)(O2)C(=O)C(=O)N2CCCC[C@H]2C(=O)O[C@H]([C@H](C)C[C@@H]2CC[C@@H](O)[C@H](OC)C2)CC(=O)[C@H](C)/C=C(\C)[C@@H](O)[C@@H](OC)C(=O)[C@H](C)C[C@H](C)/C=C/C=C/C=C/1C [RAPAMYCIN] | Non-nephrotoxic
Cc1ccc(C)c(OCCCC(C)(C)C(=O)O)c1 [GEMFIBROZIL] | Non-nephrotoxic
CCOC(=O)C(C)(C)Oc1ccc(Cl)cc1 [CLOFIBRATE] | Non-nephrotoxic
Cc1oncc1C(=O)Nc1ccc(C(F)(F)F)cc1 [LEFLUNOMIDE] | Non-nephrotoxic
CC(C)n1c(/C=C/C(O)CC(O)CC(=O)O)c(-c2ccc(F)cc2)c2ccccc21 (centres unmarked) [FLUVASTATIN] | Non-nephrotoxic
CC(C)OC(=O)C(C)(C)Oc1ccc(C(=O)c2ccc(Cl)cc2)cc1 [FENOFIBRATE] | Non-nephrotoxic
Cn1cnc([N+](=O)[O-])c1Sc1ncnc2nc[nH]c12 [AZATHIOPRINE] | Non-nephrotoxic
C[C@H]1O[C@H](O[C@H]2[C@H](O)[C@@H](O)[C@@H](O[C@H]3[C@H](O)[C@@H](O)C(O)O[C@@H]3CO)O[C@@H]2CO)[C@H](O)[C@@H](O)[C@@H]1N[C@H]1C=C(CO)[C@@H](O)[C@H](O)[C@H]1O (some centres unmarked) [ACARBOSE] | Non-nephrotoxic
NCC(=O)O [GLYCINE] | Non-nephrotoxic
CCO [ETHANOL] | Non-nephrotoxic
Cc1cc(CC(=O)O)n(C)c1C(=O)c1ccc(Cl)cc1 [ZOMEPIRAC] | Non-nephrotoxic
CO[C@H]1/C=C/O[C@@]2(C)Oc3c(C)c(O)c4c(c3C2=O)C2=NC3(CCN(CC(C)C)CC3)NC2=C(NC(=O)/C(C)=C\C=C\[C@H](C)[C@H](O)[C@@H](C)[C@@H](O)[C@@H](C)[C@H](OC(C)=O)[C@@H]1C)C4=O [RIFABUTIN] | Non-nephrotoxic
C[C@H](CS)C(=O)N1CCC[C@H]1C(=O)O [CAPTOPRIL] | Non-nephrotoxic
CCCC(CCC)C(=O)O [VALPROIC ACID] | Non-nephrotoxic

Molecule | Class (nephrotoxic / non-nephrotoxic training label)
CN(C)C=O [N,N-DIMETHYLFORMAMIDE] | Non-nephrotoxic
CNC[C@H](O)[C@@H](O)[C@H](O)[C@H](O)CO.CNC[C@H](O)[C@@H](O)[C@H](O)[C@H](O)CO.O=C([O-])CN(CCN(CC(=O)[O-])CC(=O)O)CCN(CC(=O)[O-])CC(=O)O.[Gd+3] [GADOPENTETATE DIMEGLUMINE] | Non-nephrotoxic
CC(=O)Oc1ccccc1C(=O)O [ASPIRIN] | Non-nephrotoxic
Oc1c(Cl)cc(Cl)cc1Sc1cc(Cl)cc(Cl)c1O [BITHIONOL] | Non-nephrotoxic
O=C1C(CC[S+]([O-])c2ccccc2)C(=O)N(c2ccccc2)N1c1ccccc1 (centres unmarked) [SULFINPYRAZONE] | Non-nephrotoxic
Cc1ccc(-c2cc(C(F)(F)F)nn2-c2ccc(S(N)(=O)=O)cc2)cc1 [CELECOXIB] | Non-nephrotoxic
CCN(CC)N=O [N-NITROSODIETHYLAMINE] | Non-nephrotoxic
CC[C@H](C)C(=O)O[C@H]1C[C@@H](C)C=C2C=C[C@H](C)[C@H](CC[C@@H]3C[C@@H](O)CC(=O)O3)[C@H]21 [LOVASTATIN] | Non-nephrotoxic
CC(C)[C@H](N)C(=O)OCCOCn1cnc2c(=O)[nH]c(N)nc21 [VALACYCLOVIR] | Non-nephrotoxic
CCOc1nc2cccc(C(=O)O)c2n1Cc1ccc(-c2ccccc2-c2nnn[nH]2)cc1 | Non-nephrotoxic
Cc1ccc(S(=O)(=O)NC(=O)NN2CC3CCCC3C2)cc1 (centres unmarked) [GLICLAZIDE] | Non-nephrotoxic
CCOC(=O)[C@H](CCc1ccccc1)N[C@@H](C)C(=O)N1[C@H](C(=O)O)C[C@@H]2CCC[C@@H]21 | Non-nephrotoxic
CC12CCC(CC1)C(C)(C)O2 [EUCALYPTOL] | Non-nephrotoxic
NC(=O)N1C(=O)/C(=C(\O)c2cccs2)c2cc(Cl)ccc21 [TENIDAP] | Non-nephrotoxic
CC(C)(c1ccc(O)cc1)c1ccc(O)cc1 [BISPHENOL A] | Non-nephrotoxic
CC(C)CN(C[C@@H](O)[C@H](Cc1ccccc1)NC(=O)O[C@H]1CCOC1)S(=O)(=O)c1ccc(N)cc1 | Non-nephrotoxic
CS(=O)(=O)c1ccc([C@@H](O)[C@@H](CO)NC(=O)C(Cl)Cl)cc1 [THIAMPHENICOL] | Non-nephrotoxic
CCC[C@@H]1C[C@@H](C(=O)N[C@@H]([C@H]2O[C@H](SC)[C@H](O)[C@@H](O)[C@H]2O)[C@@H](C)O)N(C)C1 [LINCOMYCIN] | Non-nephrotoxic

system: renal tubules; test: 28-day repeat dose study of known nephrotoxicants, kidney histopathology on day 5 and day 28; format: in vivo, rat; conditions: after 4 weeks of dosing, kidney histopathology
Procedure: 28-day repeat dose studies were conducted on known nephrotoxicants. Doses were chosen that would not cause histological or clinical evidence of renal tubular injury after 5 days of dosing, but would cause histological evidence of tubular injury after 28 days of dosing. Animals were assigned to groups such that mean body weights were within 10% of the mean vehicle control group. Test compounds were administered either orally (10 ml of corn oil/kg body weight) or by intra-peritoneal injection (5 ml of saline/kg body weight). Animals were dosed once daily starting on day 0, and necropsied 24 hrs after the last dose following an overnight fast on day 5 (n=5) and day 28 (n=10). An equivalent number of time- and vehicle-matched control rats were treated concurrently.
To derive a signature predictive of renal tubular injury, it is necessary to first define both nephrotoxic and non-nephrotoxic treatments from short-term studies devoid of tissue injury that can be used to model the early transcriptional effects that will be predictive of late-onset toxicity.
Doses were chosen that would not cause histological or clinical evidence of renal tubular injury after 5 days of dosing, but would cause histological evidence of tubular injury after 28 days of dosing.
Male Sprague-Dawley (Crl:CD®(SD)(IGS)BR) rats (Charles River Laboratories, Portage, Mich.), weight matched, 7 to 8 weeks of age, were housed individually in hanging, stainless steel, wire-bottom cages in a temperature (66-77° F.), light (12-hour dark/light cycle) and humidity (30-70%) controlled room. […] Housing and treatment of the animals were in accordance with regulations outlined in the USDA Animal Welfare Act (9 CFR Parts 1, 2 and 3).
All animals were monitored daily for clinical observations approximately 1 hr after dosing. […] Paired organs were weighed together. Body weights were recorded pre-test and daily thereafter for reference database (i.e., DrugMatrix™) studies, and on days 0, 3, 5, 7, 14 and 28 for the sub-chronic studies. Terminal body weights were measured at necropsy and used to calculate relative organ weights and percent body weight gain relative to day 0.
The right kidney was preserved in 10% buffered formalin for tissue fixation and subsequently embedded in paraffin, sectioned and stained with hematoxylin and eosin. Sections (5 μm thick) were examined under light microscope by Board Certified Pathologists for histopathological lesions. The left kidney was snap frozen in liquid nitrogen for subsequent RNA extraction.

Molecule | incidence of karyomegaly
N.N.[Cl][Pt][Cl] [CISPLATIN] | high incidence
N.N.O=C([O-])C1(C(=O)[O-])CCC1.[Pt+2] [CARBOPLATIN] | high incidence
CC(=O)[O-].CC(=O)[O-].[Pb+2] [LEAD (II) ACETATE] | high incidence
[Cl-].[Cl-].[Co+2] [COBALT (II) CHLORIDE] | high incidence

same assay, conditions: day 5, kidney histopathology

Molecule | mild tubular dilation and proteinaceous casts, animals affected
CC(=O)[O-].CC(=O)[O-].[Pb+2] [LEAD (II) ACETATE] | one

same assay, conditions: day 5, kidney histopathology, n=5

Molecule | incidence of karyomegaly [rats]
N.N.[Cl][Pt][Cl] [CISPLATIN] | 3
N.N.O=C([O-])C1(C(=O)[O-])CCC1.[Pt+2] [CARBOPLATIN] | 5

same assay, conditions: day 28, kidney histopathology

Molecule | evidence of tubular injury
O=[N+]([O-])c1cc([As](=O)(O)O)ccc1O [ROXARSONE] | clear evidence of tubular injury
CCCCCCCCCc1ccc(O)cc1 [4-NONYLPHENOL] | clear evidence of tubular injury

same assay, conditions: day 28, kidney histopathology, n=10

Molecule | incidence of interstitial inflammation [rats] | proteinaceous casts, tubular cysts and mineralization, animals affected
O=[N+]([O-])c1cc([As](=O)(O)O)ccc1O [ROXARSONE] | 6 | one
CCCCCCCCCc1ccc(O)cc1 [4-NONYLPHENOL] | 6 | one

same assay, conditions: male Sprague-Dawley rats, daily dose, route and vehicle of Table 2; late-onset renal tubular injury empirically confirmed after 28 days of dosing; expression profile day 5

Molecule | Class (nephrotoxic / non-nephrotoxic training label)
CCN[C@@H]1C[C@H](N)[C@@H](O[C@H]2OC(CN)=CC[C@H]2N)[C@H](O)[C@H]1O[C@H]1OC[C@](C)(O)[C@H](NC)[C@H]1O [NETILMICIN] | Nephrotoxic
CC(=O)[C@]1(O)Cc2c(O)c3c(c(O)c2[C@@H](O[C@H]2C[C@H](N)[C@H](O)[C@H](C)O2)C1)C(=O)c1ccccc1C3=O [IDARUBICIN] | Nephrotoxic
N.N.O=C([O-])C1(C(=O)[O-])CCC1.[Pt+2] [CARBOPLATIN] | Nephrotoxic
COc1cccc2c1C(=O)c1c(O)c3c(c(O)c1C2=O)C[C@@](O)(C(=O)CO)C[C@@H]3O[C@H]1C[C@H](N)[C@H](O)[C@H](C)O1 [DOXORUBICIN] | Nephrotoxic
[Cl][Cd][Cl] [CADMIUM CHLORIDE] | Nephrotoxic
GENTAMICIN | Nephrotoxic
O=[N+]([O-])c1cc([As](=O)(O)O)ccc1O [ROXARSONE] | Nephrotoxic
COc1cccc2c1C(=O)c1c(O)c3c(c(O)c1C2=O)C[C@@](O)(C(C)=O)C[C@@H]3O[C@H]1C[C@H](N)[C@H](O)[C@H](C)O1 [DAUNORUBICIN] | Nephrotoxic
NC[C@H]1O[C@H](O[C@H]2[C@H](O)[C@@H](O[C@H]3O[C@H](CO)[C@@H](O)[C@H](N)[C@H]3O)[C@H](N)C[C@@H]2N)[C@H](N)C[C@@H]1O [TOBRAMYCIN] | Nephrotoxic
CC(=O)[O-].CC(=O)[O-].[Pb+2] [LEAD (II) ACETATE] | Nephrotoxic
[Cl-].[Cl-].[Co+2] [COBALT (II) CHLORIDE] | Nephrotoxic
NCC[C@H](O)C(=O)N[C@@H]1C[C@H](N)[C@@H](O[C@H]2O[C@H](CN)[C@@H](O)[C@H](O)[C@H]2O)[C@H](O)[C@H]1O[C@H]1O[C@H](CO)[C@@H](O)[C@H](N)[C@H]1O [AMIKACIN] | Nephrotoxic

same assay, conditions: rat, in vivo

Molecule | Class (nephrotoxic / non-nephrotoxic training label)
CCCCCCCCCc1ccc(O)cc1 [4-NONYLPHENOL] | Nephrotoxic

Reference: patent publication US7588892B2, “Reagent sets and gene signatures for renal tubule injury” (Entelos, Inc., priority 2004, dated 2009)
